Test results reported in patent publication US20240122930A1, “INTEGRIN INHIBITORS AND USES THEREOF IN COMBINATION WITH OTHER AGENTS” (Pliant Therapeutics, Inc., priority 2022, published 2024).
Entries after “also recorded” stand apart in the source; their conditions may differ.

How the values were obtained:
[1] = test system: explanted human lung tissue from patients with idiopathic pulmonary fibrosis; assay: Fibrosis-related gene expression (nCounter Fibrosis Panel) in precision cut lung slices; type: cell-based
From the text: Briefly, tissue samples from patients with IPF were acquired at the time of lung transplantation. […] Treated slices were lysed in mRNA-compatible buffer for gene expression analysis. For this study, the lysate from n=6 slices per treatment per lung were pooled for analysis using the nCounter Fibrosis Panel (Nanostring) on the nCounter Max analyzer (Nanostring). This commercially available panel of 770 genes includes genes related to initial tissue damage response, chronic inflammation, proliferation of pro-fibrotic cells, and tissue modification leading to fibrotic disease. Technical quality control and normalization of raw Nanostring mRNA count data was performed using an R framework developed by Bhattacharya et al. (Bhattacharya A. et al., Brief Bioinform. 2021 May 20; 22(3):bbaa163; herein incorporated by reference in its entirety). The R packages limma (see URL www.bioconductor.org/packages/release/bioc/html/limma.html, which is incorporated herein by reference in its entirety) and voom (Law, C.

[2] = test system: patients with idiopathic pulmonary fibrosis (IPF); assay: Phase 2a randomized, double-blind, placebo-controlled trial in IPF; type: in vivo, human; settings: FIG. 36
[3] = test system: IPF-derived human lung fibroblasts; assay: LAP adhesion assay, IPF-derived human lung fibroblasts (xCELLigence); type: cell-based; settings: adhesion to LAP, FIG. 3B
Protocol: Two latency associated peptide (LAP) adhesion binding assays were devised using primary human lung cells, including normal (healthy) human bronchial epithelial cells and human lung fibroblasts (healthy and IPF).
Human lung fibroblasts derived from normal and IPF lung tissue are known to express αVβ1 integrin. The IPF-derived human lung fibroblasts were prepared for the assay by dissociation with trypsin/EDTA, and were seeded at 20,000 cells per well on 96 well plates (ACEA Bioscience E-plate View, Acea Biosciences; San Diego, CA) previously coated with […] of recombinant human LAP (R&D Systems; Minneapolis, MN) and blocked with 4% bovine serum albumin. Cell index (electrical impedance) was measured to assess cell attachment/spreading every 3 minutes for 24 hours at 37° C./5% CO2 using the xCELLigence RTCA MP Instrument (Acea Biosciences; San Diego, CA). […] In the assay, the IPF-derived human lung fibroblasts were separately incubated with: the αVβ1-selective small molecule inhibitor; the selective antibody αVβ6 inhibitor, 3G9; and Compound 5.

pSmad2/Smad2 = assay: Alveolar (BAL) pSmad2/Smad2, change from baseline at 24 hours (FIG. 12, prior studies); type: in vivo, human; settings: 80 mg and 160 mg, p<0.0001 at both doses
From the text: FIG. 12 through FIG. 33 illustrate various details and results from the clinical trial. […] In FIG. 12, BAL refers to bronchoalveolar lavage; pSmad2/Smad2 refers to ratio of phosphorylated Smad2 to total Smad2; and QD refers to once daily. **** refers to p<0.0001.

[4] = test system: participants with idiopathic pulmonary fibrosis (IPF); assay: Phase 2a clinical trial ([…]-IPF): Forced Vital Capacity (FVC) spirometry; type: in vivo, human; settings: for Proportion of Participants with FVCpp Decline ≥10%, ITT, FIG. 20: placebo (N=23) 17.4%; for LS Mean (SE) change from Baseline in FVC at Week 12, ITT, Not on SoC subgroup, FIG. 30: placebo (n=7) −28.2; for Proportion of participants with Absolute FVCpp decline ≥10%, ITT, FIG. 31 / Proportion of participants with Relative FVCpp decline ≥10%, ITT, FIG. 29: placebo (n=31) 12.9%; for LS Mean (SE) change from Baseline in FVC at Week 12, mITT, FIG. 27: placebo (n=31) −64.2
[5] = test system: participants with idiopathic pulmonary fibrosis (IPF); assay: as above; type: in vivo, human
Protocol: Study Design and Objectives. […] At Day 1, baseline values were collected.
Data shown from left to right is participants treatment with 40 mg Compound 5, 80 mg Compound 5, 160 mg Compound 5, all participants treated with Compound 5, and participants treated with Placebo. Change from baseline was analyzed using a mixed model for repeated measures with terms for treatment group, SOC (Y/N), visit, baseline value, and treatment-by-visit interaction. An unstructured covariance (UN) structure was used.
[…]-IPF study design and objectives.
The histograms from left to right are 40 mg (n=22) with a LS Mean (SE) change from Baseline in FVC (mL) at Week 12 of −48.6, 80 mg (n=23) with a LS Mean (SE) change from Baseline in FVC (mL) at Week 12 of 22.8, 160 mg (n=22) with a LS Mean (SE) change from Baseline in FVC (mL) at Week 12 of −28.7, 320 mg (n=21) with a LS Mean (SE) change from Baseline in FVC (mL) at Week 12 of 26.8, and placebo (n=31) with a LS Mean (SE) change from Baseline in FVC (mL) at Week 12 of −64.2. Change from baseline in FVC analyzed using a mixed model for repeated measures (MMRM) with terms for treatment group, use of SOC, week and baseline value. FVC=Forced Vital Capacity. mITT=Modified Intent to Treat. * p<0.05. **p<0.01.
At Day 1, baseline values were collected.

[6] = FIG. 24 Venn region E: only altered by Compound 5 in the absence of pirfenidone
[7] = gene expression, combination vs individual treatment
[8] = single treatment, adj. p-value <0.05

COCCN(CCCCc1ccc2c(n1)NCCC2)CC[C@H](Nc1ncnc2ccccc12)C(=O)O [Compound 5, (S)-4-((2-methoxyethyl) (4-(5,6,7,8-tetrahydro-1,8-naphthyridin-2-yl)butyl)amino)-2-(quinazolin-4-ylamino) butanoic acid]
Genes Down-regulated with Compound 5 and Pirfenidone Alone or in Combination, region E [1, 6]: COL3A1 and COL6A3 and LOXL1 and MARCO and MMP8 and PLPP4
Genes Up-regulated with Compound 5 and Pirfenidone Alone or in Combination, region E [1, 6]: APOA2 and CIITA and IFI6 and NOS1 and OAS1 and TTN
Genes Down-regulated with Compound 5 and Pirfenidone Alone or in Combination, region F ([1]; FIG. 24 Venn region F: altered by Compound 5 or pirfenidone alone, but not by Compound 5 in combination with pirfenidone): CXCR4; also recorded: PECAM1
Genes up-regulated, Venn region E (FIG. 24) ([1]; IPF precision cut lung slices, 7 days, only altered by Compound 5 in the absence of nintedanib): APOA2 and CCL13 and CIITA and IFI6
% Reduction APOC2 [1, 7]: −1.20%
% Reduction CDH2 [1, 7]: 23.87%
% Reduction COL1A1 [1, 7]: 38.78%
% Reduction THBS2 [1, 7]: 31.47%
logFC ALDH7A1 [1, 8]: 0.57
logFC OAS1 [1, 8]: 0.6104
patients with FVC improvement at week 12 who maintained improvement in FVC at week 24 [2]: About 89%
cell adhesion in the IPF-derived lung fibroblasts [3]: substantially inhibited
Alveolar pSmad2/Smad2, Percentage Change from Baseline at 24 Hours vs. placebo (pSmad2/Smad2): statistically significant
LS Mean Change From Baseline in FVC at week 12, On SoC Subgroup (MMRM, ITT) ([4]; 40 mg (N=17), placebo −95.2 mL): -58.3 mL
Proportion of Participants with FVCpp Decline ≥10%, ITT, FIG. 20 ([4]; 40 mg (N=22), 12 weeks): 18.2%
LS Mean (SE) change from Baseline in FVC at Week 12, ITT, Not on SoC subgroup, FIG. 30 ([4]; 40 mg (n=5)): -43.5 mL
Proportion of participants with Absolute FVCpp decline ≥10%, ITT, FIG. 31 ([4]; 40 mg (n=22)): 9.1%
Proportion of participants with Relative FVCpp decline ≥10%, ITT, FIG. 29 ([4]; 40 mg (n=22)): 18.2%
Proportion of Participants with FVCpp Decline ≥10%, ITT, FIG. 20 ([4]; 80 mg (N=23), 12 weeks): 8.7%
LS Mean (SE) change from Baseline in FVC at Week 12, ITT, Not on SoC subgroup, FIG. 30 ([4]; 80 mg (n=4)): 138.5 mL
Proportion of participants with Absolute FVCpp decline ≥10%, ITT, FIG. 31 ([4]; 80 mg (n=23)): 8.7%
Proportion of participants with Relative FVCpp decline ≥10%, ITT, FIG. 29 ([4]; 80 mg (n=23)): 8.7%
LS Mean (SE) change from Baseline in FVC at Week 12, mITT, FIG. 27 ([4]; 80 mg (n=23)): 22.8 mL
Proportion of Participants with FVCpp Decline ≥10%, ITT, FIG. 20 ([4]; 160 mg (N=22), 12 weeks): 4.5%
LS Mean (SE) change from Baseline in FVC at Week 12, ITT, Not on SoC subgroup, FIG. 30 ([4]; 160 mg (n=3)): 26.4 mL
Proportion of participants with Absolute FVCpp decline ≥10%, ITT, FIG. 31 ([4]; 160 mg (n=22)): 4.5%
Proportion of participants with Relative FVCpp decline ≥10%, ITT, FIG. 29 ([4]; 160 mg (n=22)): 4.5%
LS Mean (SE) change from Baseline in FVC at Week 12, mITT, FIG. 27 ([4]; 160 mg (n=22)): -28.7 mL
Participants with a ≥10% absolute decline in FVC over 24 weeks ([4]; 320 mg): no Compound 5-treated participants
LS Mean (SE) change from Baseline in FVC at Week 12, ITT, Not on SoC subgroup, FIG. 30 ([4]; 320 mg (n=4)): 19.8 mL
Proportion of participants with Absolute FVCpp decline ≥10%, ITT, FIG. 31 ([4]; 320 mg (n=21)): 0%
Proportion of participants with Relative FVCpp decline ≥10%, ITT, FIG. 29 ([4]; 320 mg (n=21)): 0%
LS Mean (SE) change from Baseline in FVC at Week 12, mITT, FIG. 27 ([4]; 320 mg (n=21)): 26.8 mL
Participants with a decline of ≥10% in percent predicted FVC (FVCpp) ([4]; 320 mg, 12 weeks): No participants
Reduction of the decline from baseline in FVCpp compared to placebo ([4]; 320 mg, Week 24): 68%
Average decrease in FVC at 24 weeks, ITT, SoC subgroup, FIG. 35 ([4]; 320 mg, patients on standard of care (pirfenidone or nintedanib), placebo 172.8 mL): 35.0 mL
Patients showing an improvement in FVC at 24 weeks, ITT, FIG. 36 ([4]; 320 mg, placebo 0%): 50%
Average decrease in FVC at 24 weeks, ITT, FIG. 34 ([4]; 320 mg, placebo 109.3 mL): 35.9 mL
Change in FVC percent predicted from baseline at Week 24, ITT, FIG. 37 ([4]; 320 mg, placebo −[…]): −0.8%
Proportion of participants with FVCpp decline of ≥10% ([4]; 40, 80, 160 mg, 12 weeks): dose-dependent reduction
Change in FVC from Baseline to Week 12 (MMRM, ITT) ([4]; pooled Compound 5 groups 40-160 mg (n = 67), placebo −74.1 mL): -15.1 mL
Reduction in FVC decline over 12 weeks compared to placebo ([4]; pooled active groups 40-160 mg): 80%
LS Mean (SE) change from Baseline in FVC at Week 12, mITT, FIG. 27 ([5]; 40 mg (n=22), placebo (n=31) −64.2): -48.6 mL
Treatment effect on FVC with and without use of standard-of-care agents ([5]; 12 weeks): evident; also recorded: observed
